Patent publication US10010507B1, “Pharmaceutical formulations of a bruton's tyrosine kinase inhibitor” (Pharmacyclics LLC, priority 2015, dated 2018)
Like-named read-outs stand apart in the source and are kept apart here.

System: OCI-Ly10
Assay: Inhibition of growth of OCI-Ly10 (ABC-DLBCL cells)
Type: cell-based
Conditions: Homo sapiens
Source text: DLBCL cells of the ABC subtype, such as OCI-Ly10, have chronic active BCR signaling and are very sensitive to the Btk inhibitor described herein. […] In addition, induction of apoptosis, as shown by capsase activation, Annexin-V flow cytometry and increase in sub-GO fraction is observed in OCILy 10. Both sensitive and resistant cells express Btk at similar levels, and the active site of Btk is fully occupied by the inhibitor in both as shown using a fluorescently labeled affinity probe. […] The activity of Btk inhibitors in the cell lines studied herein are also characterized by comparing signal transduction profiles (Btk, PLCγ, ERK, NF-kB, AKT), cytokine secretion profiles and mRNA expression profiles, both with and without BCR stimulation, and observed significant differences in these profiles that lead to clinical biomarkers that identify the most sensitive patient populations to Btk inhibitor treatment. See U.S. Pat. No. 7,711,492 and Staudt et al., Nature, Vol. 463, Jan. 7, 2010, pp. 88-92, the contents of which are incorporated by reference in their entirety.

SMILES: C=CC(=O)N1CCC[C@@H](n2nc(-c3ccc(Oc4ccccc4)cc3)c3c(N)ncnc32)C1 [Compound 1, 1-((R)-3-(4-amino-3-(4-phenoxyphenyl)-1H-pyrazolo[3,4-d]pyrimidin-1-yl)piperidin-1-yl)prop-2-en-1-one]
- EC50 (read-out: EC50 1 hour pulse, growth of OCI-Ly10, 1 hour pulse): 0.05 µM
- EC50 (growth of OCI-Ly10, continuous exposure, read-out: EC50 continuous exposure): 0.01 µM
